The results in this text go back to patent US20130157959A1, “USE OF HADES AS TUMOR SUPPRESSOR TARGET” (KONKUK UNIVERSITY INDUSTRIAL COOPERATION CORP, priority 2010, published 2013).

Peptide text beside a SMILES is read from it. * marks the point of attachment. Cbz = O=C(OCc1ccccc1)*

Holding throughout (format): cell-based
Series [1] deals with p53. Kind of series: p53 accumulation in CPT-treated MCF7 cells (immunoblotting). The protocol:
In a prior research, as p53 is rapidly translocated to mitochondria upon camptothecin (CPT) treatment for its exonuclear function [Mihara et al., Molecular Cell 11, 577-590 (2003)]. We examined whether Hades would be able to weaken the exonuclear function of p53 upon CPT treatment. MCF7 cells were transfected with plasmids (1 μg) expressing GFP or GFP-Hades. At 24 h post-transfection, cells were treated with CPT (1 μM) for 6 h. Accumulation of p53 upon CPT treatment was attenuated by Hades expression (FIG. 5e, upper panel). MCF7 cells were transfected with expression plasmid for GFP or GFP-Hades RING MR. At 24 h after transfection, cells were treated with CPT [5 μM] for 6 h and their nuclear and cytoplasmic fractions were collected to measure the expression level of p53. […] Further, MCF7 cells were transfected with the expression plasmids for GFP or GFP-Hades MR. At 24 h after transfection, cells were treated with 1 μM CPT for 24 h. Cells were harvested, lysed and immunoprecipitated with anti-p53 antibody. […] Hades inhibits the interaction between p53 and Bcl-2 in CPT-treated cells. (FIG. 5f) In order to confirm the effect of Hades on CPT-induced apoptosis, MCF7 cells were transfected with plasmids expressing GFP or GFP-Hades. At 24 h post-transfection, cells were treated with CPT (1 μM) for 24 h.

A further series has as its system HCT116 p53+/+ cells. Put plainly: JC-1 mitochondrial membrane potential, HCT116 p53+/+. The following applies: 40 nM siRNA 24 h, then 1 μM CPT 24 h, FIG. 5j. The protocol:
For the MTS assay, cells were incubated with CellTiter 96® AQueous Non-Radioactive Cell Proliferation Assay reagent (Promega, USA) for 1 h, and then the O.D. was measured at 490 nm. Apoptosis, DNA content, and mitochondrial membrane potential were determined by flow cytometry using annexin V-PE, propidium iodine, and JC-1 staining, as previous described [Shirangi et al., FASEB J. 16, 420-422 (2002)].
The present inventors investigated the negative role of Hades on p53-dependent apoptosis additionaly using FACS analysis. MCF7 cells were transfected with pSuper or pSuper-Hades, treated with 1 μM CPT for 24 h, and analyzed by FACS to measure the sub-GO fraction. As a result, CPT treatment was higher in Hades knockdown MCF7 cells than in control cells (FIG. 5i). Further, HCT116 p53+/+ and HCT116 p53−/− cells were transfected with 40 nM Hades siRNA or control siRNA. After incubation for 24 h, cells were further treated with 1 μM CPT for 24 h. Cells were harvested and stained with JC-1 for 30 min.

Series [2] relates to p53. Put plainly: Bax-luc / Puma-luc luciferase reporter assay. The following applies: H1299, LMB 20 nM 4 h, FIG. 4b. The protocol:
Aliquots of 5×10^4 cells were plated in 24-well plates. The following was added to each well: 500 ng of pGL plasmid containing the promoter p53 binding site for Bax or Puma, 100 ng of p53 plasmid, and 200 ng of Hades or Hades MT plasmid. At 48 h after transfection, cells were harvested and cell extracts were prepared by addition of 50 μl Passive lysis buffer (Promega). Luciferase activities were measured using a Biotek synergy HT microplate reader. The relative luciferase activities were normalized by mesuring β-galactosidase activities using Luminescent β-galactosidase detection kit II (Takara-Clontech).
Since E3 ligase activities necessary for p53 ubiquitination can also regulate p53 function [Dornan et al., Nature 429, 86-92 (2004); Leng et al., Cell 112, 779-791 (2003)], we explored the effect of Hades on p53-dependent growth suppression and apoptosis. First, we examined whether Hades affects p53-mediated transcriptional activation using a luciferase reporter assay (FIG. 4a). H1299 cells were cotransfected with expression plasmids for p53 and GFP, GFP-Hades, or GFP-Hades MT, together with Bax-luc or Puma-luc reporter plasmid. At 24 h after transfection, the relative luciferase activities were measured by luminometer. […] At 24 h after transfection, luciperase activation and p53 experssion were measured.

A further series addresses Crm1 (Homo sapiens, UniProt O14980). Kind of series: p53 level in Hades-transfected H1299 cells with leptomycin B. Conditions: H1299 transfected with p53 and GFP-Hades, FIG. 2i.
Series [3] has as its system p53. Put plainly: p53 level in Hades-transfected H1299 cells with MG132. Conditions: H1299, 10 μM MG132 4 h, FIG. 2e. The protocol: To gain a more detailed insight into the function of Hades in p53 downregulation, we investigated the regulation of p53 stability by Hades. H1299 cells were transfected with each indicated plasmid for 24 h and untreated or treated with 10 μM MG132 for 4 h. The reduced level of p53 by Hades was recovered by treatment of MG132 (FIG. 2e). To generate of stable Hades-knockdown MCF7 cells using the shRNA, the cells were transfected with pSuper-Hades 1 or 2. After selection for 14 days in media containing G418 (500 μg/ml), hades mRNA levels were measured by RT-PCR and the levels of endogenous Hades and p53 proteins were measured by immunoblotting. […] Furthermore, Stable Hades-knockdown MCF7 cells using Hades shRNA were incubated with cycloheximide (CHX, 150 μg/ml). The half-life of p53 protein was greater in pSuper-Hades transfected cells (lower panel) than in control (upper panel) (FIG. 2g).

For series [4], the system named is p53. Put plainly: In vivo p53 ubiquitination assay in H1299 cells. Conditions: H1299 cotransfected with p53 and GFP-Hades, MG132 10 μM 4 h, FIG. 3e. The protocol:
For in vivo p53 ubiquitination assay, HCT116 p53^−/− or H1299 cells were transfected with GFP, GFP-Hades, or GFP-Hades RING MT. At 48 hr after transfection, cells were treated with 10 μM MG132 for 4 hr. The ubiquitinated lysates were analyzed by immunoprecipitation using anti-p53 antibody followed by immunoblotting using anti-Ubiquitin antibody. In vivo p53 ubiquitination analysis, HCT116 p53^−/− or H1299 cells were transformed with GFP, GFP-Hades or GFP-Hades RING MT for 48 hr. After the transformation, cells were incubated for 4 hr using 10 μM MG132. Then, cells were lysed using SDS-containing lysis buffer and heated for […]. […] The anti-p53 immunoprecipitate was analyzed by immunoblotting using anti-polyubiquitin antibody.
Since there are several E2 conjugating enzymes which participate in the ubiquitin-mediated degradation [Smalle et al., Annu Rev Plant Biol. 2004, 555-590 (2004)], we examined which E2 enzyme is responsible for the ubiquitination of p53 by Hades. […] After in vitro ubiquitination, samples were examined SDS-PAGE and detected using autoradiography. […] Moreover, in vitro translated ^35S-labeled p53 was incubated with GST, GST-Hades RP or GST-Mdm2 in the presence of ATP, His-tagged ubiquitin E1 and E2(UbcHSc). p53 ubiquitination was assessed by immunoblotting using anti-p53 antibody. […] The p53 ubiquitination was assessed by immunoblotting using anti-p53 antibody. […]

Sequence of Crm1 (O14980 whole entry): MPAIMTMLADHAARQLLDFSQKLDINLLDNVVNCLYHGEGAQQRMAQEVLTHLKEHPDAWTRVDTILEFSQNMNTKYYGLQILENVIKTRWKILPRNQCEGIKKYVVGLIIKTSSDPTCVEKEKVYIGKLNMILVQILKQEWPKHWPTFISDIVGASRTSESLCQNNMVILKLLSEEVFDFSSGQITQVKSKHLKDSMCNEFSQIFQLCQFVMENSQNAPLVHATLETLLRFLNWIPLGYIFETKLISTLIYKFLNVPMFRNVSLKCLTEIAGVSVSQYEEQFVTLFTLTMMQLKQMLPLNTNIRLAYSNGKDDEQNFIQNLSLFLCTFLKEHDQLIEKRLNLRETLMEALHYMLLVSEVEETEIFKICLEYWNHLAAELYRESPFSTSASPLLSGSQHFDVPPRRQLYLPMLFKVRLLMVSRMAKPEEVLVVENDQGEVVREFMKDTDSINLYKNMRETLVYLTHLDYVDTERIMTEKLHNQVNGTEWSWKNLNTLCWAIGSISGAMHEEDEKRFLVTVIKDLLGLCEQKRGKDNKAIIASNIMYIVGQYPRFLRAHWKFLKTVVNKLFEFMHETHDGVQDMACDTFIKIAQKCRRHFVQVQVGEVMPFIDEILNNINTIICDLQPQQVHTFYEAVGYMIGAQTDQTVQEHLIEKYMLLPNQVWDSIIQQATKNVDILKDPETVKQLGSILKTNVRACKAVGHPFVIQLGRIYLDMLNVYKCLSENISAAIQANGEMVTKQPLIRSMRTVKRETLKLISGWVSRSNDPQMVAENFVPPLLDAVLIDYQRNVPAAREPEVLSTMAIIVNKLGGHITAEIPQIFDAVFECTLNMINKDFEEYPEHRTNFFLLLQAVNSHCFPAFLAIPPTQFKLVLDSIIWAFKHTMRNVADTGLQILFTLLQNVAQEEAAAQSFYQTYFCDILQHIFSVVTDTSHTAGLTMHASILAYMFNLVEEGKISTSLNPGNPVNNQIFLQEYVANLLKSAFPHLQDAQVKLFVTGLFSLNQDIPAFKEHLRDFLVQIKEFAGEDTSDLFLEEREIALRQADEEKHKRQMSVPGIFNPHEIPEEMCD
Method for Crm1: Next, we monitored the localization of p53 after the knockdown of Hades. […] The levels of endogenous p53 were measured in fractionated extracts of stable MCF7 cells. […] And also, we used a p53 expression plasmid encoding a mutant p53 (C153Y) that is localized mainly to the cytoplasm but not in the nucleus [Nie et al., J Biol Chem. 282, 14616-14625 (2007)]. We performed immunoblotting assay of ectopically expressed wild-type or mutant p53(C135Y). […] At 24 h after transfection, ectopically expressed wild-type p53 and mutant p53 levels were measured by immunoblotting.

Turning to `CC[C@@]1(O)C(=O)OCc2c1cc1n(c2=O)Cc2cc3ccccc3nc2-1` [CPT, Camptothecin], the “expression level of p53” value with p53 [1] (MCF7, 1 μM CPT 24 h, FIG. 5f) is “accumulation of p53 expression was observed”. Also, the “expression level of p53 in nuclear and cytoplasmic fractions” value in the series with p53 [1] (MCF7, CPT 5 μM 6 h, FIG. 5e lower panel) is “accumulated in nucleus and cytoplasm”. Regarding “Hades siRNA: siRNAs for Hades from Ambion, GGGAUUUUUAUCUCGAGGC and CGUGUGUGUAGAGGACAAA; antisense SEQ ID NO: 4 and 5 (antisense 1 GCCUCGAGAUAAAAAUCCCTG; antisense 2 UUUGUCCUCUACACACACGTG; sense strands lack entries, further chemistry not given here)”, the “loss of mitochondrial membrane potential (JC-1)” value with HCT116 p53+/+ cells is given as “only detectable in HCT116 p53+/+ cells”. For the molecule `CCC(=C/[C@H](C)C/C=C/C(C)=C/[C@@H](C)C(=O)[C@@H](C)[C@H](O)[C@@H](C)C/C(C)=C/C(=O)O)/C=C/[C@@H]1OC(=O)C=C[C@@H]1C` [LMB, Leptomycin B], the “p53 transcriptional activity (relative luciferase activity)” value in the series with p53 [2] is “not reduced by Hades in the presence of LMB”. Besides, at Crm1, the “level of p53 reduced by Hades” value is “restored the level of p53”.

With `CC(C)C[C@@H](C=O)NC(=O)[C@H](CC(C)C)NC(=O)[C@H](CC(C)C)NC(=O)OCc1ccccc1` [MG132] (Cbz-Leu-Leu-Leu-aldehyde), the “level of p53 reduced by Hades” value in the series with p53 [3] was “recovered”. For the same molecule, in the series on p53 [4], the “polyubiquitinated p53” value is on record as “only detected in Hades-transfected cells treated with MG132”.
